system: MDA MB 231 cells; experiment: Antiproliferation assay in MDA MB 231 cells (Cell Titer Glo); type: cell-based; conditions: Homo sapiens, MDA-MB-231, 216 h, MDAMB231 cell line, 9 day treatment, racemic compounds (Table 2)
Method: Antiproliferation Assay in MDA MB 231 Cells MDA MB 231 cells were seeded in 96 well plate at a seeding density of 250 cells/well. The cells were allowed to settle overnight under standard incubator conditions (37° C., 5% CO2). Next day treatment with increasing dose of test compounds and reference compounds were done to the respective wells and the cells were further incubated under standard cell culture conditions for another 4 days. On the 5th day, media was replenished with fresh treatment and cells were incubated for a total of 9 day treatment period. On the day of termination, appropriate volume of Cell Titer Glo reagent was added to the treatment (and control) wells and the plates were kept on a plate shaker @300 RPM for 15 min. Luminiscence reading (RLU) was […] RLU is directly proportional to ATP content and is directly related to number of metabolically active cells in the respective well. Calculation: a. Blank Correction: RLU of the Wells Containing No Cells is Considered as Blank and Subtracted from all RLU of the Treated and Control Wells [formula]

**Q.** Which inhibition at 10 µM does the source give for `CCC(=O)N1N=C(c2c(C)c3ccsc3[nH]c2=O)CC1c1cnc(C)cc1C` (centres unmarked) [Example 50, 5-(5-(4,6-dimethylpyridin-3-yl)-1-propionyl-4,5-dihydro-1H-pyrazol-3-yl)-4-methylthieno[2,3-b]pyridin-6(7H)-one] here?
**A.** < 50%

**Q.** With `CCC(=O)N1N=C(c2c(C)c3ccsc3[nH]c2=O)CC1c1cnc(C)c(C)c1` (centres unmarked) [Example 54, 5-(5-(5,6-dimethylpyridin-3-yl)-1-propionyl-4,5-dihydro-1H-pyrazol-3-yl)-4-methylthieno[2,3-b]pyridin-6(7H)-one] as the compound, how does the inhibition at 10 µM read?
**A.** ≥ 50%

**Q.** For `CCC(=O)N1N=C(c2c(C)c3ccccc3[nH]c2=O)CC1c1cn(C)c2ccccc12` (centres unmarked) [Example 12, 4-Methyl-3-(5-(1-methyl-1H-indol-3-yl)-1-propionyl-4,5-dihydro-1H-pyrazol-3-yl)quinolin-2(1H)-one], which inhibition at 10 µM is on record?
**A.** ≥ 50%

**Q.** `CCC(=O)N1N=C(c2c(C3CC3)c3cc(Cl)ccc3[nH]c2=O)CC1c1ccc(OC)cc1` (centres unmarked) [Example 23, 6-chloro-4-cyclopropyl-3-(5-(4-methoxyphenyl)-1-propionyl-4,5-dihydro-1H-pyrazol-3-yl)quinolin-2(1H)-one] was tested. Which inhibition at 10 µM did it give?
**A.** ≥ 50%

**Q.** Which inhibition at 10 µM does the source give for `CCC(=O)N1N=C(c2c(C)c3ccc(N4CCOCC4)cc3[nH]c2=O)CC1c1ccc(C)cc1` (centres unmarked) [Example 77, 4-methyl-7-morpholino-3-(1-propionyl-5-(p-tolyl)-4,5-dihydro-1H-pyrazol-3-yl)quinolin-2(1H)-one] here?
**A.** ≥ 50%

**Q.** `CCC(=O)N1N=C(c2c(C)c3ccc(N4CCN(C)CC4)cc3[nH]c2=O)CC1c1ccc(C)cc1` (racemic) [Example 82, 4-methyl-7-(4-methylpiperazin-1-yl)-3-(1-propionyl-5-(p-tolyl)-4,5-dihydro-1H-pyrazol-3-yl)quinolin-2(1H)-one] was tested. Which inhibition at 10 µM did it give?
**A.** ≥ 50%

**Q.** Which inhibition at 10 µM does the source give for `CCC(=O)N1N=C(c2c(C)c3cc(Br)ccc3[nH]c2=O)CC1c1ccc(OC)cc1` (centres unmarked) [Example 15, 6-bromo-3-(5-(4-methoxyphenyl)-1-propionyl-4,5-dihydro-1H-pyrazol-3-yl)-4-methylquinolin-2(1H)-one] here?
**A.** ≥ 50%

**Q.** For `CCC(=O)N1N=C(c2c(C)c3ccsc3[nH]c2=O)CC1C1CCCCC1` (centres unmarked) [Example 58, 5-(5-cyclohexyl-1-propionyl-4,5-dihydro-1H-pyrazol-3-yl)-4-methylthieno[2,3-b]pyridin-6(7H)-one], which inhibition at 10 µM is on record?
**A.** < 50%

**Q.** How did the inhibition at 10 µM turn out when `CCC(=O)N1N=C(c2c(C)c3ccsc3[nH]c2=O)CC1c1ccc(OC)s1` (centres unmarked) [Example 29, 5-(5-(5-methoxythiophen-2-yl)-1-propionyl-4,5-dihydro-1H-pyrazol-3-yl)-4-methylthieno[2,3-b]pyridin-6(7H)-one] was run?
**A.** ≥ 50%

**Q.** For `CCC(=O)N1N=C(c2c(=O)[nH]cc3ccccc23)CC1c1ccc(OC)cc1` (centres unmarked) [Example 19, 4-(5-(4-methoxyphenyl)-1-propionyl-4,5-dihydro-1H-pyrazol-3-yl)isoquinolin-3(2H)-one], which inhibition at 10 µM is on record?
**A.** < 50%

**Q.** Which inhibition at 10 µM does the source give for `CCC(=O)N1N=C(c2c(C)c3ccsc3[nH]c2=O)CC1c1ccc(C)cc1` (racemic) [Example 37, 4-methyl-5-(1-propionyl-5-(p-tolyl)-4,5-dihydro-1H-pyrazol-3-yl)thieno[2,3-b]pyridin-6(7H)-one] here?
**A.** ≥ 50%

**Q.** `CCC(=O)N1N=C(c2c(C)c3ccsc3[nH]c2=O)CC1c1ccc(N2CCN(C)CC2)cc1` (centres unmarked) [Example 38, 4-methyl-5-(5-(4-(4-methylpiperazin-1-yl)phenyl)-1-propionyl-4,5-dihydro-1H-pyrazol-3-yl)thieno[2,3-b]pyridin-6(7H)-one] was tested. Which inhibition at 10 µM did it give?
**A.** ≥ 50%

**Q.** For `CCC(=O)N1N=C(c2c(C)c3ccsc3[nH]c2=O)CC1c1cnc(C)c(F)c1` (centres unmarked) [Example 55, 5-(5-(5-fluoro-6-methylpyridin-3-yl)-1-propionyl-4,5-dihydro-1H-pyrazol-3-yl)-4-methylthieno[2,3-b]pyridin-6(7H)-one], which inhibition at 10 µM is on record?
**A.** ≥ 50%

**Q.** For `CCC(=O)N1N=C(c2c(C)c3ccsc3[nH]c2=O)CC1c1ccc(C(F)F)cc1` (centres unmarked) [Example 43, 5-(5-(4-(difluoromethyl)phenyl)-1-propionyl-4,5-dihydro-1H-pyrazol-3-yl)-4-methylthieno[2,3-b]pyridin-6(7H)-one], which inhibition at 10 µM is on record?
**A.** ≥ 50%

**Q.** For `CCC(=O)N1N=C(c2c(C)c3ccc(OCCOC)nc3[nH]c2=O)CC1c1ccc(C)cc1` (centres unmarked) [Example 87, 7-(2-methoxyethoxy)-4-methyl-3-(1-propionyl-5-(p-tolyl)-4,5-dihydro-1H-pyrazol-3-yl)-1,8-naphthyridin-2(1H)-one], which inhibition at 10 µM is on record?
**A.** ≥ 50%

**Q.** For `CCC(=O)N1N=C(c2c(C)c3ccc(Cl)cc3[nH]c2=O)CC1c1ccc(C)cc1` (racemic) [Example 80, 7-chloro-4-methyl-3-(1-propionyl-5-(p-tolyl)-4,5-dihydro-1H-pyrazol-3-yl)quinolin-2(1H)-one], which inhibition at 10 µM is on record?
**A.** ≥ 50%

**Q.** For `CCC(=O)N1N=C(c2c(C)c3cc(Cl)ccc3[nH]c2=O)CC1c1ccc2ccn(C)c2c1` (centres unmarked) [Example 6, 6-Chloro-4-methyl-3-(5-(1-methyl-1H-indol-6-yl)-1-propionyl-4,5-dihydro-1H-pyrazol-3-yl)quinolin-2(1H)-one], which inhibition at 10 µM is on record?
**A.** ≥ 50%

**Q.** `Cc1ccc(C2CC(c3c(C)c4ccsc4[nH]c3=O)=NN2C(=O)C(F)(F)F)cc1` (centres unmarked) [Example 64, 4-methyl-5-(5-(p-tolyl)-1-(2,2,2-trifluoroacetyl)-4,5-dihydro-1H-pyrazol-3-yl)-7,7a-dihydrothieno[2,3-b]pyridin-6(7H)-one] was tested. Which inhibition at 10 µM did it give?
**A.** ≥ 50%

**Q.** Which inhibition at 10 µM does the source give for `CCC(=O)N1N=C(c2c(C)c3ccsc3[nH]c2=O)CC1c1csc(Br)c1` (centres unmarked) [Example 31, 5-(5-(5-bromothiophen-3-yl)-1-propionyl-4,5-dihydro-1H-pyrazol-3-yl)-4-methylthieno[2,3-b]pyridin-6(7H)-one] here?
**A.** < 50%

**Q.** Which inhibition at 10 µM does the source give for `CCC(=O)N1N=C(c2c(C)c3ccsc3[nH]c2=O)CC1c1ccc(C)cc1F` (racemic) [Example 66, 5-(5-(2-fluoro-4-methylphenyl)-1-propionyl-4,5-dihydro-1H-pyrazol-3-yl)-4-methylthieno[2,3-b]pyridin-6(7H)-one] here?
**A.** ≥ 50%

**Q.** How did the inhibition at 10 µM turn out when `CCC(=O)N1N=C(c2c(C)c3ccsc3[nH]c2=O)CC1c1cc(Br)cs1` (centres unmarked) [Example 34, 5-(5-(4-bromothiophen-2-yl)-1-propionyl-4,5-dihydro-1H-pyrazol-3-yl)-4-methylthieno[2,3-b]pyridin-6(7H)-one] was run?
**A.** < 50%

**Q.** For `CCC(=O)N1N=C(c2c(C)c3ccsc3[nH]c2=O)CC1c1ccc(CC)cc1` (centres unmarked) [Example 44, 5-(5-(4-ethylphenyl)-1-propionyl-4,5-dihydro-1H-pyrazol-3-yl)-4-methylthieno[2,3-b]pyridin-6(7H)-one], which inhibition at 10 µM is on record?
**A.** ≥ 50%

**Q.** With `CCC(=O)N1N=C(c2c(C)c3c(C)cccc3[nH]c2=O)CC1c1ccc(C)cc1` (centres unmarked) [Example 76, 4,5-dimethyl-3-(1-propionyl-5-(p-tolyl)-4,5-dihydro-1H-pyrazol-3-yl)quinolin-2(1H)-one] as the compound, how does the inhibition at 10 µM read?
**A.** ≥ 50%

**Q.** How did the inhibition at 10 µM turn out when `CC(=O)N1N=C(c2c(C)c3ccsc3[nH]c2=O)CC1c1ccc(C)cc1` (centres unmarked) [Example 62, 5-(1-acetyl-5-(p-tolyl)-4,5-dihydro-1H-pyrazol-3-yl)-4-methyl-7,7a-dihydrothieno[2,3-b]pyridin-6(7H)-one] was run?
**A.** ≥ 50%

**Q.** For `CCC(=O)N1N=C(c2c(C)c3ccc(N4CCOCC4)nc3[nH]c2=O)CC1c1ccc(C)cc1` (centres unmarked) [Example 86, 4-methyl-7-morpholino-3-(1-propionyl-5-(p-tolyl)-4,5-dihydro-1H-pyrazol-3-yl)-1,8-naphthyridin-2(1H)-one], which inhibition at 10 µM is on record?
**A.** < 50%

**Q.** `CCC(=O)N1N=C(c2c(C)c3ccsc3[nH]c2=O)CC1c1ccc(C(F)(F)F)cc1` (centres unmarked) [Example 42, 4-methyl-5-(1-propionyl-5-(4-(trifluoromethyl)phenyl)-4,5-dihydro-1H-pyrazol-3-yl)thieno[2,3-b]pyridin-6(7H)-one] was tested. Which inhibition at 10 µM did it give?
**A.** ≥ 50%

**Q.** For `CCC(=O)N1N=C(c2c(C)c3ccc(F)cc3[nH]c2=O)CC1c1ccc(C)cc1` (centres unmarked) [Example 83, 7-fluoro-4-methyl-3-(1-propionyl-5-(p-tolyl)-4,5-dihydro-1H-pyrazol-3-yl)quinolin-2(1H)-one], which inhibition at 10 µM is on record?
**A.** ≥ 50%

**Q.** With `CCC(=O)N1N=C(c2c(C)c3c(Cl)csc3[nH]c2=O)CC1c1ccc(OC)cc1` (centres unmarked) [Example 40, 3-chloro-5-(5-(4-methoxyphenyl)-1-propionyl-4,5-dihydro-1H-pyrazol-3-yl)-4-methylthieno[2,3-b]pyridin-6(7H)-one] as the compound, how does the inhibition at 10 µM read?
**A.** < 50%

**Q.** For `CCC(=O)N1N=C(c2cc3ccsc3[nH]c2=O)CC1c1ccc(OC)cc1` (centres unmarked) [Example 22, 5-(5-(4-methoxyphenyl)-1-propionyl-4,5-dihydro-1H-pyrazol-3-yl)thieno[2,3-b]pyridin-6(7H)-one], which inhibition at 10 µM is on record?
**A.** ≥ 50%

same assay, conditions: Homo sapiens, MDA-MB-231, 216 h, MDAMB231 cell line, 9 day treatment, separated enantiomers A/B (Table 3)

**Q.** With `CCC(=O)N1N=C(c2c(C)c3ccc(Cl)cc3[nH]c2=O)CC1c1ccc(C)cc1` (single isomer, unassigned) [Example 80A] as the compound, how does the inhibition at 10 µM read?
**A.** < 50%

**Q.** Which inhibition at 10 µM does the source give for `CCC(=O)N1N=C(c2c(C)c3ccsc3[nH]c2=O)CC1c1ccc(Cl)cc1` (single isomer, unassigned) [Example 28B] here?
**A.** ≥ 50%

**Q.** With `CCC(=O)N1N=C(c2c(C)c3ccsc3[nH]c2=O)CC1c1ccc(OC)cc1` (single isomer, unassigned) [Example 20A] as the compound, how does the inhibition at 10 µM read?
**A.** ≥ 50%

**Q.** With `CCC(=O)N1N=C(c2c(C)c3ccncc3[nH]c2=O)CC1c1ccc(C)cc1` (single isomer, unassigned) [Example 74A] as the compound, how does the inhibition at 10 µM read?
**A.** ≥ 50%

**Q.** Which inhibition at 10 µM does the source give for `CCC(=O)N1N=C(c2c(C)c3ccsc3[nH]c2=O)CC1c1ccc(C)nc1` (single isomer, unassigned) [Example 45B] here?
**A.** ≥ 50%

**Q.** How did the inhibition at 10 µM turn out when `CCC(=O)N1N=C(c2c(C)c3ccsc3[nH]c2=O)CC1c1ccc(C)cc1` (single isomer, unassigned) [Example 37B] was run?
**A.** ≥ 50%

From patent publication US20250145601A1, “NOVEL BICYCLIC COMPOUNDS AS RAD51 INHIBITORS” (SATYA THERAPEUTICS, INC., priority 2022, published 2025)
